Activity calls are given as the source filed them. How the calls were made is not given here.
System: CCRIS mutagenicity, Ames/micronucleus/aberration tests
Assay: CCRIS mutagenicity studies
[1] = Test System: AMES SALMONELLA TYPHIMURIUM, Strain/Indicator: TA100, Metabolic Activation: NONE, Method: PREINCUBATION
[2] = Test System: AMES SALMONELLA TYPHIMURIUM, Strain/Indicator: TA100, Metabolic Activation: NONE, Method: STANDARD PLATE
[3] = Test System: AMES SALMONELLA TYPHIMURIUM, Strain/Indicator: TA1535, Metabolic Activation: NONE, Method: PREINCUBATION
[4] = Test System: AMES SALMONELLA TYPHIMURIUM, Strain/Indicator: TA98, Metabolic Activation: NONE, Method: PREINCUBATION

In the case of `c1ccc(C2CO2)cc1` (centres undefined), the mutagenic call (End Point: IN VITRO CHROMOSOMAL ABERRATIONS, Test System: CHL CELLS, Metabolic Activation: RAT, LIVER, S-9, SODIUM PHENOBARBITAL AND 5,6-BENZOFLAVONE) is reported as “active; positive (structural changes)”, the mutagenic call (Test System: AMES SALMONELLA TYPHIMURIUM, Strain/Indicator: TA97, Metabolic Activation: NONE, Method: STANDARD PLATE) is reported as “active; positive” and the mutagenic call (Test System: AMES SALMONELLA TYPHIMURIUM, Strain/Indicator: TA97, Metabolic Activation: RAT, LIVER, S-9, AROCLOR 1254, Method: STANDARD PLATE) is reported as “inactive; negative”. For the same molecule, the mutagenic call (Test System: AMES SALMONELLA TYPHIMURIUM, Strain/Indicator: TA98, Metabolic Activation: HAMSTER, LIVER, S-9, AROCLOR 1254 (30%), Method: PREINCUBATION) was “inactive; negative”, the mutagenic call (Test System: AMES SALMONELLA TYPHIMURIUM, Strain/Indicator: TA98, Metabolic Activation: NONE, Method: STANDARD PLATE) was “inactive; negative” and the mutagenic call (Test System: AMES SALMONELLA TYPHIMURIUM, Strain/Indicator: TA98, Metabolic Activation: RAT LIVER S-9, PHENOBARBITAL AND BETA-NAPHTHOFLAVONE, Method: PREINCUBATION) was “inactive; negative”. The mutagenic call (Test System: AMES SALMONELLA TYPHIMURIUM, Strain/Indicator: TA98, Metabolic Activation: RAT, LIVER, S-9, AROCLOR 1254 (30%), Method: PREINCUBATION) was “inactive; negative”, the mutagenic call (Test System: AMES SALMONELLA TYPHIMURIUM, Strain/Indicator: TA98, Metabolic Activation: RAT, LIVER, S-9, AROCLOR 1254, Method: STANDARD PLATE) was “inactive; negative” and the mutagenic call (Test System: AMES SALMONELLA TYPHIMURIUM, Strain/Indicator: TA100, Metabolic Activation: HAMSTER, LIVER, S-9, AROCLOR 1254 (30%), Method: PREINCUBATION) was “active; positive”. The mutagenic call [1] was “active; positive”, the mutagenic call [2] was “active; positive” and the mutagenic call (Test System: AMES SALMONELLA TYPHIMURIUM, Strain/Indicator: TA100, Metabolic Activation: RAT LIVER S-9, PHENOBARBITAL AND BETA-NAPHTHOFLAVONE, Method: PREINCUBATION) was “active; positive”. The mutagenic call (Test System: AMES SALMONELLA TYPHIMURIUM, Strain/Indicator: TA100, Metabolic Activation: RAT, LIVER, S-9, AROCLOR 1254 (30%), Method: PREINCUBATION) was “active; positive”, the mutagenic call (Test System: AMES SALMONELLA TYPHIMURIUM, Strain/Indicator: TA100, Metabolic Activation: RAT, LIVER, S-9, AROCLOR 1254, Method: STANDARD PLATE) was “inactive; negative” and the mutagenic call (Test System: AMES SALMONELLA TYPHIMURIUM, Strain/Indicator: TA104, Metabolic Activation: NONE, Method: STANDARD PLATE) was “active; positive”. The mutagenic call [3] was “active; positive”, the mutagenic call (Test System: AMES SALMONELLA TYPHIMURIUM, Strain/Indicator: TA1535, Metabolic Activation: NONE, Method: STANDARD PLATE) was “active; positive” and the mutagenic call (Test System: AMES SALMONELLA TYPHIMURIUM, Strain/Indicator: TA1535, Metabolic Activation: RAT LIVER S-9, PHENOBARBITAL AND BETA-NAPHTHOFLAVONE, Method: PREINCUBATION) was “active; positive”. The mutagenic call (Test System: AMES SALMONELLA TYPHIMURIUM, Strain/Indicator: TA1537, Metabolic Activation: NONE, Method: PREINCUBATION) was “active; positive”, the mutagenic call (Test System: AMES SALMONELLA TYPHIMURIUM, Strain/Indicator: TA1537, Metabolic Activation: RAT LIVER S-9, PHENOBARBITAL AND BETA-NAPHTHOFLAVONE, Method: PREINCUBATION) was “inactive; negative” and the mutagenic call (Test System: AMES SALMONELLA TYPHIMURIUM, Strain/Indicator: TA4001, Metabolic Activation: NONE, Method: STANDARD PLATE) was “active; positive”. The mutagenic call (Test System: AMES SALMONELLA TYPHIMURIUM, Strain/Indicator: TA4006, Metabolic Activation: NONE, Method: STANDARD PLATE) was “active; positive”, the mutagenic call (Test System: CHINESE HAMSTER V-79, Strain/Indicator: V-79/6-THIOGUANINE, Metabolic Activation: NONE, Method: FLASK ASSAY) was “inactive; negative” and the mutagenic call (Test System: CHINESE HAMSTER V-79, Strain/Indicator: V-79/8-AZAGUANINE, Metabolic Activation: NONE, Method: STANDARD PLATE) was “active; positive”. For the same molecule, the mutagenic call (Test System: E. COLI, Strain/Indicator: WP2 UVRA, Metabolic Activation: NONE, Method: STANDARD PLATE) was “active; positive”, the mutagenic call (Test System: E.COLI, Strain/Indicator: WP2UVRA, Metabolic Activation: NONE, Method: PREINCUBATION) was “active; positive” and the mutagenic call (Test System: E.COLI, Strain/Indicator: WP2UVRA, Metabolic Activation: RAT LIVER S-9, PHENOBARBITAL AND BETA-NAPHTHOFLAVONE, Method: PREINCUBATION) was “active; positive”. For the same molecule, the mutagenic call (Test System: HUMAN T LYMPHOCYTES, PRIMARY CULTURES, Strain/Indicator: HPRT/6-THIOGUANINE, Metabolic Activation: NONE, Method: SUSPENSION/PLATE) was “active; positive” and the mutagenic call (Test System: UDS HUMAN CELLS, Strain/Indicator: THY INCORP (NON-S-PHASE), Metabolic Activation: NONE, Method: LIQUID SCINTILLATION COUNTING) was “active; positive”.

With `C1=CC2=C3OC3c3cc4c(cc3C2C=C1)c1c(c2ccccc24)O1` (centres undefined) the mutagenic call [2] was “active; positive”.

For `CCCCCOc1cccc(NC(=O)O[C@@H]2CCCC[C@H]2N2CCCC2)c1`, the mutagenic call (Test System: AMES SALMONELLA TYPHIMURIUM, Strain/Indicator: TA98, Metabolic Activation: MOUSE, LIVER, S-9, AROCLOR 1254, Method: PREINCUBATION) was “inactive; negative”, the mutagenic call [4] was “inactive; negative” and the mutagenic call (Test System: AMES SALMONELLA TYPHIMURIUM, Strain/Indicator: TA100, Metabolic Activation: MOUSE, LIVER, S-9, AROCLOR 1254, Method: PREINCUBATION) was “inactive; negative”. The mutagenic call [1] was “inactive; negative”, the mutagenic call (Test System: AMES SALMONELLA TYPHIMURIUM, Strain/Indicator: TA1535, Metabolic Activation: MOUSE, LIVER, S-9, AROCLOR 1254, Method: PREINCUBATION) was “inactive; negative” and the mutagenic call [3] was “inactive; negative”. For the same molecule, the mutagenic call (Test System: AMES SALMONELLA TYPHIMURIUM, Strain/Indicator: TA1538, Metabolic Activation: MOUSE, LIVER, S-9, AROCLOR 1254, Method: PREINCUBATION) was “inactive; negative”, the mutagenic call (Test System: AMES SALMONELLA TYPHIMURIUM, Strain/Indicator: TA1538, Metabolic Activation: NONE, Method: PREINCUBATION) was “inactive; negative” and the mutagenic call (Test System: AMES SALMONELLA TYPHIMURIUM, Strain/Indicator: TA1978, Metabolic Activation: MOUSE, LIVER, S-9, AROCLOR 1254, Method: PREINCUBATION) was “inactive; negative”. The mutagenic call (Test System: AMES SALMONELLA TYPHIMURIUM, Strain/Indicator: TA1978, Metabolic Activation: NONE, Method: PREINCUBATION) was “inactive; negative”, the mutagenic call (Test System: E. COLI, Strain/Indicator: CM611 UVRA/LEXA, Metabolic Activation: MOUSE, LIVER, S-9, AROCLOR 1254, Method: PREINCUBATION) was “inactive; negative” and the mutagenic call (Test System: E. COLI, Strain/Indicator: CM611 UVRA/LEXA, Metabolic Activation: NONE, Method: PREINCUBATION) was “inactive; negative”. The mutagenic call (Test System: E. COLI, Strain/Indicator: WP2, Metabolic Activation: MOUSE, LIVER, S-9, AROCLOR 1254, Method: PREINCUBATION) was “inactive; negative”, the mutagenic call (Test System: E. COLI, Strain/Indicator: WP2, Metabolic Activation: NONE, Method: PREINCUBATION) was “inactive; negative” and the mutagenic call (Test System: E. COLI, Strain/Indicator: WP2 UVRA, Metabolic Activation: MOUSE, LIVER, S-9, AROCLOR 1254, Method: PREINCUBATION) was “inactive; negative”. The mutagenic call (Test System: E. COLI, Strain/Indicator: WP2 UVRA, Metabolic Activation: NONE, Method: PREINCUBATION) was “inactive; negative”, the mutagenic call (Test System: E. COLI, Strain/Indicator: WP67 UVRA/POLA, Metabolic Activation: MOUSE, LIVER, S-9, AROCLOR 1254, Method: PREINCUBATION) was “inactive; negative” and the mutagenic call (Test System: E. COLI, Strain/Indicator: WP67 UVRA/POLA, Metabolic Activation: NONE, Method: PREINCUBATION) was “inactive; negative”.

`CSc1ccc([N+](=O)[O-])cc1[N+](=O)[O-]` was tested, and the mutagenic call (Test System: AMES SALMONELLA TYPHIMURIUM, Strain/Indicator: TA100(NR), Metabolic Activation: NONE, Method: PREINCUBATION) was “active; positive”, the mutagenic call (Test System: AMES SALMONELLA TYPHIMURIUM, Strain/Indicator: TA100/GSH-, Metabolic Activation: NONE, Method: PREINCUBATION) was “active; positive” and the mutagenic call [1] was “active; positive”.

With `CN(CO)N=O` the mutagenic call (Test System: CHINESE HAMSTER V-79, Strain/Indicator: V-79/OUABAIN, Metabolic Activation: NONE) was “active; positive”.

`CC(N)CCN` (centres undefined) was tested, and the mutagenic call [4] was “inactive; negative”, the mutagenic call (Test System: AMES SALMONELLA TYPHIMURIUM, Strain/Indicator: TA98, Metabolic Activation: RAT, LIVER, S-9, PCB, Method: PREINCUBATION) was “inactive; negative” and the mutagenic call [1] was “inactive; negative”. The mutagenic call (Test System: AMES SALMONELLA TYPHIMURIUM, Strain/Indicator: TA100, Metabolic Activation: RAT, LIVER, S-9, PCB, Method: PREINCUBATION) was “inactive; negative”.

In the case of `O[C@H]1C=Cc2ncccc2[C@@H]1O`, the mutagenic call [2] is reported as “inactive; negative” and the mutagenic call (Test System: AMES SALMONELLA TYPHIMURIUM, Strain/Indicator: TA100, Metabolic Activation: RAT, LIVER, S-9, AROCLOR 1254 (10 OR 20%), Method: STANDARD PLATE) is reported as “inactive; negative”.

`Nc1nc2c([nH]c(=O)n2[C@@H]2O[C@H](CO)[C@@H](O)[C@H]2O)c(=O)[nH]1` was tested, and the mutagenic call [1] was “inactive; negative”.

Source: PubChem BioAssay AID1259407 (Chemical Carcinogenesis Research Information System (CCRIS), 2018)
